PubChem BioAssay AID248 (DTP/NCI, 2004)
Several values for one entry are separate records, joined by “and”; a condition that tells them apart may be missing. Equal values may be shown once. Toxic doses and inconclusive results are not listed.

Test system: L1210 leukemia ip in BDF1 mice, survival T/C
Test: NCI In Vivo Anticancer Drug Screen. Data for tumor model L1210 Leukemia (intraperitoneal) in B6D2F1 (BDF1) mice
Details: endpoint: mean survival time, higher = longer survival
How it was run: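 Tumor was transplanted into mice, which were then dosed with test compound or vehicle alone. Survival was recorded for each group, and the treated figure was expressed relative to the control figure.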

[1] = dose: 100.0 mg/kg/injection, schedule: Q01DX009 (ip), vehicle: saline with Tween-80
[2] = dose: 200.0 mg/kg/injection, schedule: Q01DX009 (ip), vehicle: saline with Tween-80
[3] = dose: 100.0 mg/kg/injection, schedule: Q01DX001 (ip), vehicle: other
[4] = dose: 200.0 mg/kg/injection, schedule: Q01DX001 (ip), vehicle: other
[5] = dose: 400.0 mg/kg/injection, schedule: Q01DX001 (ip), vehicle: other
[6] = dose: 100.0 mg/kg/injection, schedule: Q04DX003 (ip), vehicle: Klucel (hydroxypropylcellulose) (HPC)
[7] = dose: 200.0 mg/kg/injection, schedule: Q04DX003 (ip), vehicle: Klucel (hydroxypropylcellulose) (HPC)
[8] = dose: 400.0 mg/kg/injection, schedule: Q04DX003 (ip), vehicle: Klucel (hydroxypropylcellulose) (HPC)
[9] = dose: 100.0 mg/kg/injection, schedule: Q01DX009 (ip), vehicle: Klucel (hydroxypropylcellulose) (HPC)
[10] = dose: 400.0 mg/kg/injection, schedule: Q01DX009 (ip), vehicle: Klucel (hydroxypropylcellulose) (HPC)
[11] = dose: 100.0 mg/kg/injection, schedule: Q04DX002 (ip), vehicle: Klucel (hydroxypropylcellulose) (HPC)
[12] = dose: 200.0 mg/kg/injection, schedule: Q04DX002 (ip), vehicle: Klucel (hydroxypropylcellulose) (HPC)
[13] = dose: 400.0 mg/kg/injection, schedule: Q04DX002 (ip), vehicle: Klucel (hydroxypropylcellulose) (HPC)

## O=C(O)C=C(CBr)CBr
dose: 10.0 mg/kg/injection, schedule: Q01DX001 (ip), vehicle: saline
  T/C: 93 % of control
dose: 20.0 mg/kg/injection, schedule: Q01DX001 (ip), vehicle: saline
  T/C: 94 % of control
dose: 40.0 mg/kg/injection, schedule: Q01DX001 (ip), vehicle: saline
  T/C: 109 % of control

## N#Cc1c(Oc2ccccc2)c(F)c(Oc2ccccc2)c(F)c1Oc1ccccc1
[1]
  T/C: 100 % of control
[2]
  T/C: 91 % of control
dose: 400.0 mg/kg/injection, schedule: Q01DX009 (ip), vehicle: saline with Tween-80
  T/C: 92 % of control

## CN(C)c1ccc(-c2cc(C(=O)O)c3cc4ccccc4cc3n2)cc1
dose: 50.0 mg/kg/injection, schedule: Q01DX009 (ip), vehicle: saline with Tween-80
  T/C: 91 % of control
[1]
  T/C: 96 % of control
dose: 100.0 mg/kg/injection, schedule: Q04DX002 (ip), vehicle: saline with Tween-80
  T/C: 92 % of control
[2]
  T/C: 88 % of control
dose: 200.0 mg/kg/injection, schedule: Q04DX002 (ip), vehicle: saline with Tween-80
  T/C: 92 % of control

## O=c1[nH]nc(SCc2ccccc2)c(=O)n1C(c1ccccc1)c1ccccc1
[3]
  T/C: 90 % of control
[4]
  T/C: 90 % of control
[5]
  T/C: 98 % of control

## CN1CC2CCCCC1C2OC(=O)C(c1ccccc1)c1ccccc1 (configuration not stated)
dose: 75.0 mg/kg/injection, schedule: Q01DX001 (ip), vehicle: saline
  T/C: 110 % of control
dose: 150.0 mg/kg/injection, schedule: Q01DX001 (ip), vehicle: saline
  T/C: 101 % of control

## O=[N+]([O-])c1ccc(-c2nc3c(o2)CCC3)cc1
dose: 100.0 mg/kg/injection, schedule: Q04DX003 (ip), vehicle: saline with Tween-80
  T/C: 98 % of control
dose: 200.0 mg/kg/injection, schedule: Q04DX003 (ip), vehicle: saline with Tween-80
  T/C: 105 % of control
dose: 400.0 mg/kg/injection, schedule: Q04DX003 (ip), vehicle: saline with Tween-80
  T/C: 96 % of control

## COc1cccc(C)c1[N+](=O)[O-]
[6]
  T/C: 94 % of control
[7]
  T/C: 97 % of control
[8]
  T/C: 105 % of control

## Nc1c(Cl)ncnc1Nc1ccc([N+](=O)[O-])cc1
dose: 100.0 mg/kg/injection, schedule: Q01DX001 (ip), vehicle: Klucel (hydroxypropylcellulose) (HPC)
  T/C: 89 % of control
dose: 200.0 mg/kg/injection, schedule: Q01DX001 (ip), vehicle: Klucel (hydroxypropylcellulose) (HPC)
  T/C: 94 % of control
dose: 400.0 mg/kg/injection, schedule: Q01DX001 (ip), vehicle: Klucel (hydroxypropylcellulose) (HPC)
  T/C: 92 % of control

## N#CC/C(C#N)=C/OC(=O)c1ccc(Cl)cc1
[9]
  T/C: 118 % of control
dose: 200.0 mg/kg/injection, schedule: Q01DX009 (ip), vehicle: Klucel (hydroxypropylcellulose) (HPC)
  T/C: 124 % of control
[10]
  T/C: 115 % of control

## CCC1CN2CCc3cc(OC)c(OC)cc3C2CC1CC1c2cc(OC)c(OC)cc2CCN1C(=O)CNC(=O)OC(C)(C)C (configuration not stated)
dose: 100.0 mg/kg/injection, schedule: Q01DX001 (ip), vehicle: saline
  T/C: 97 % of control
dose: 200.0 mg/kg/injection, schedule: Q01DX001 (ip), vehicle: saline
  T/C: 101 % of control
dose: 400.0 mg/kg/injection, schedule: Q01DX001 (ip), vehicle: saline
  T/C: 109 % of control

## CCOC(=O)CC(C[N+](=O)[O-])C(F)(F)F (configuration not stated)
[3]
  T/C: 103 % of control
[4]
  T/C: 97 % of control
[5]
  T/C: 103 % of control

## CC(C)Oc1ccc(CC(N)C(=O)O)cc1N(CCCl)CCCl (configuration not stated)
dose: 0.44 mg/kg/injection, schedule: Q01DX009 (ip), vehicle: carboxymethylcellulose (CMC)
  T/C: 108 % of control
dose: 0.5 mg/kg/injection, schedule: Q01DX009 (ip), vehicle: saline
  T/C: 120 % of control
dose: 0.6 mg/kg/injection, schedule: Q01DX009 (ip), vehicle: carboxymethylcellulose (CMC)
  T/C: 121 % of control
dose: 0.66 mg/kg/injection, schedule: Q01DX009 (ip), vehicle: carboxymethylcellulose (CMC)
  T/C: 111 % of control
dose: 1.0 mg/kg/injection, schedule: Q01DX009 (ip), vehicle: carboxymethylcellulose (CMC)
  T/C: 124 % of control
dose: 1.0 mg/kg/injection, schedule: Q01DX009 (ip), vehicle: saline
  T/C: 114 % of control
dose: 1.5 mg/kg/injection, schedule: Q01DX001 (ip), vehicle: carboxymethylcellulose (CMC)
  T/C: 108 % of control
dose: 2.0 mg/kg/injection, schedule: Q01DX009 (ip), vehicle: saline
  T/C: 117 % of control
dose: 2.2 mg/kg/injection, schedule: Q01DX001 (ip), vehicle: carboxymethylcellulose (CMC)
  T/C: 114 % of control
dose: 3.3 mg/kg/injection, schedule: Q01DX001 (ip), vehicle: carboxymethylcellulose (CMC)
  T/C: 119 % of control
dose: 3.3 mg/kg/injection, schedule: Q01DX009 (ip), vehicle: carboxymethylcellulose (CMC)
  T/C: 158 % of control
dose: 5.0 mg/kg/injection, schedule: Q01DX001 (ip), vehicle: carboxymethylcellulose (CMC)
  T/C: 114 % of control
dose: 5.0 mg/kg/injection, schedule: Q01DX001 (ip), vehicle: saline with Tween-80
  T/C: 116 % of control
dose: 5.0 mg/kg/injection, schedule: Q01DX009 (ip), vehicle: carboxymethylcellulose (CMC)
  T/C: 164 % of control and 166 % of control
dose: 7.5 mg/kg/injection, schedule: Q01DX001 (ip), vehicle: saline with Tween-80
  T/C: 116 % of control
dose: 7.5 mg/kg/injection, schedule: Q01DX009 (ip), vehicle: carboxymethylcellulose (CMC)
  T/C: 205 % of control
dose: 10.0 mg/kg/injection, schedule: Q01DX001 (ip), vehicle: saline with Tween-80
  T/C: 116 % of control
dose: 10.0 mg/kg/injection, schedule: Q01DX009 (ip), vehicle: carboxymethylcellulose (CMC)
  T/C: 213 % of control
dose: 15.0 mg/kg/injection, schedule: Q01DX001 (ip), vehicle: carboxymethylcellulose (CMC)
  T/C: 124 % of control
dose: 15.0 mg/kg/injection, schedule: Q01DX009 (ip), vehicle: carboxymethylcellulose (CMC)
  T/C: 123 % of control
dose: 25.0 mg/kg/injection, schedule: Q01DX001 (ip), vehicle: Klucel (hydroxypropylcellulose) (HPC)
  T/C: 177 % of control
dose: 30.0 mg/kg/injection, schedule: Q01DX009 (ip), vehicle: saline
  T/C: 90 % of control

## N#CC(c1ccccc1)C(C/C(=N\O)c1ccccc1)c1ccccc1 (configuration not stated)
[11]
  T/C: 111 % of control
[12]
  T/C: 100 % of control
[13]
  T/C: 96 % of control

## CCc1ccccc1NC(=O)SCCSC(=O)Nc1ccccc1CC
dose: 25.0 mg/kg/injection, schedule: Q01DX009 (ip), vehicle: Klucel (hydroxypropylcellulose) (HPC)
  T/C: 91 % of control
dose: 50.0 mg/kg/injection, schedule: Q01DX009 (ip), vehicle: Klucel (hydroxypropylcellulose) (HPC)
  T/C: 102 % of control
[9]
  T/C: 96 % of control and 87 % of control
[10]
  T/C: 104 % of control

## CCOC(=O)C(Cc1ccc(O)cc1)Nc1nc2ccccc2o1 (configuration not stated)
dose: 100.0 mg/kg/injection, schedule: Q01DX001 (ip), vehicle: carboxymethylcellulose (CMC)
  T/C: 96 % of control
dose: 200.0 mg/kg/injection, schedule: Q01DX001 (ip), vehicle: carboxymethylcellulose (CMC)
  T/C: 96 % of control
dose: 400.0 mg/kg/injection, schedule: Q01DX001 (ip), vehicle: carboxymethylcellulose (CMC)
  T/C: 96 % of control

## Cc1ccc(NC(=O)OCCN(C)C)cc1NC(=O)OCCN(C)C
dose: 12.5 mg/kg/injection, schedule: Q01DX009 (ip), vehicle: saline
  T/C: 98 % of control and 97 % of control
dose: 25.0 mg/kg/injection, schedule: Q01DX009 (ip), vehicle: saline
  T/C: 98 % of control
dose: 50.0 mg/kg/injection, schedule: Q01DX009 (ip), vehicle: saline
  T/C: 101 % of control and 92 % of control
dose: 100.0 mg/kg/injection, schedule: Q01DX009 (ip), vehicle: saline
  T/C: 102 % of control

## C/C([O-])=C(/c1nc(-c2ccc([N+](=O)[O-])o2)no1)[n+]1cc(C)ccc1C
[11]
  T/C: 95 % of control
[12]
  T/C: 91 % of control
[13]
  T/C: 87 % of control

## On1ccccc1=S
dose: 6.25 mg/kg/injection, schedule: Q04DX002 (ip), vehicle: saline with Tween-80
  T/C: 100 % of control
dose: 12.5 mg/kg/injection, schedule: Q04DX002 (ip), vehicle: saline with Tween-80
  T/C: 111 % of control
dose: 25.0 mg/kg/injection, schedule: Q04DX002 (ip), vehicle: saline with Tween-80
  T/C: 100 % of control

## CCOC(CN=Cc1cc(C)c2[nH]c3ccc(OC)cc3c2c1C)OCC
[3]
  T/C: 96 % of control
[6]
  T/C: 98 % of control
[4]
  T/C: 102 % of control
[7]
  T/C: 96 % of control
[5]
  T/C: 98 % of control
[8]
  T/C: 96 % of control
